Results as given in patent publication US10828271B2, “Method for treating pleuroperitoneal membrane cancers by locally injecting disulfiram preparation” (NUOMA (BEIJING) TECHNOLOGY CO., LTD, priority 2016, dated 2020).
Like-named read-outs stand apart in the source and are kept apart here.

Columns and labels:
[1] = system: MSTO mesothelioma cells; assay: MTT cell survival assay, MSTO mesothelioma cells; assay type: cell-based, human; details: for IC50: MSTO cells, 3 days incubation, MTT, read-out: IC50s (nM), inhibition of mesothelioma growth, MSTO; for Synergy index CI at ED50, MSTO / Synergy index CI at ED75, MSTO / Synergy index CI at ED90, MSTO: named drug combined with DS + Cu
Procedure: (§1) Separate incubations were performed with pemetrexed, DS/Cu (disulfiram/copper gluconate) and cisplatin for 3 days. Cell survival was determined via an MTT assay.

[2] = system: Ju77 mesothelioma cells; assay: MTT cell survival assay, Ju77 mesothelioma cells; assay type: cell-based, human; details: for IC50: Ju77 cells, 3 days incubation, MTT, read-out: IC50s (nM), inhibition of mesothelioma growth, Ju77; for Synergy index CI at ED50, Ju77 / Synergy index CI at ED75, Ju77 / Synergy index CI at ED90, Ju77: named drug combined with DS + Cu
Procedure: as §1

[3] = system: E58 mesothelioma cells; assay: MTT cell survival assay, E58 mesothelioma cells; assay type: cell-based, human; details: for Synergy index CI at ED50, E58 / Synergy index CI at ED75, E58 / Synergy index CI at ED90, E58: named drug combined with DS + Cu
Procedure: as §1

[4] = system: 2591 mesothelioma cells; assay: MTT cell survival assay, 2591 mesothelioma cells; assay type: cell-based, human; details: for IC50: 2591 cells, 3 days incubation, MTT, read-out: IC50s (nM), inhibition of mesothelioma growth, 2591; for Synergy index CI at ED50, 2591 / Synergy index CI at ED75, 2591 / Synergy index CI at ED90, 2591: named drug combined with DS + Cu
Procedure: as §1

[5] = system: A2780 ovarian cancer cells; assay: Cell survival assay, A2780 ovarian cancer cells; assay type: cell-based, human
[6] = system: SKOV-3 ovarian cancer cells; assay: Cell survival assay, SKOV-3 ovarian cancer cells; assay type: cell-based, human; details: cisplatin (CDDP) combined with DS + Cu
[7] = system: MSTO mesothelioma cells; assay: Peritoneal MSTO mesothelioma model in CD1 nude mice; assay type: in vivo, mouse
Procedure: (§2) MSTO mesothelioma cells and SKVO-3 ovarian cancer cells were cultured in a DMEM medium containing 10% fetal calf serum supplemented with 10 mg/ml streptomycin and 2 mmol/L L-glutamine at 37° C. under a 5% CO2 atmosphere.
(§3) MSTO mesothelioma cells and SKVO-3 ovarian cancer cells were injected at a rate of 3×10^6/animal into female CD1 nude mice and animals were randomly divided into two groups (10 animals/group). […] Drug administration was performed three times per week. The mice were weighed three times per week. Once the experiment was complete, the animals were sacrificed via cervical dislocation. The abdominal cavities of all mice were opened to observe and assess ascites formation and abdominal wall tumors.

[8] = system: SKVO-3 ovarian cancer cells; assay: Peritoneal ovarian cancer model in CD1 nude mice; assay type: in vivo, mouse
Procedure: as §2, §3

[9] = system: S180 ascites tumor cells; details: for Formation of ascites and masses at laparotomy: three weeks after cell injection
Procedure: S180 ascites cells were purchased from the Chinese Academy of Sciences Shanghai Cell Bank and cultured in a DMEM medium containing 10% fetal calf serum supplemented with 10 mg/ml streptomycin and 2 mmol/L L-glutamine at 37° C. under a 5% CO2 atmosphere.
S-180 cells were injected at a rate of 2.5×10^6/animal into the abdominal cavity of male Kunming mice and the animals were randomly divided into two groups (8 animals/group). […] Drug administration was performed three times per week. The mice were weighed three times per week. Once the experiment was complete, the animals were sacrificed via cervical dislocation. The abdominal cavities of all mice were opened to observe and assess ascites formation and abdominal wall tumors.

[10] = absorbed disulfiram in the bloodstream; cited from earlier work
[11] = oral dose of 500 mg; cited from earlier work
[12] = Anticancer activity of disulfiram metabolites (unpublished data); details: unpublished data of the applicant
[13] = disulfiram 40 μg/animal i.p. + CuGlu oral, as of Day 90
[14] = disulfiram 5 mg/kg i.p. + CuGlu 5 mg/kg oral, three times per week, Day 21

[NH2][Pt]([NH2])([Cl])[Cl] [CDDP, cisplatin]
IC50 [1]: 4590 nM | Synergy index CI at ED50, MSTO [1]: 0.567 | Synergy index CI at ED75, MSTO [1]: 0.320 | Synergy index CI at ED90, MSTO [1]: 0.209 | IC50 [2]: 8790 nM | Synergy index CI at ED50, Ju77 [2]: 0.389 | Synergy index CI at ED75, Ju77 [2]: 0.346 | Synergy index CI at ED90, Ju77 [2]: 0.319 | Synergy index CI at ED50, E58 [3]: 0.385 | Synergy index CI at ED75, E58 [3]: 0.355 | Synergy index CI at ED90, E58 [3]: 0.449 | IC50 [4]: 9160 nM | Synergy index CI at ED50, 2591 [4]: 0.777 | Synergy index CI at ED75, 2591 [4]: 0.868 | Synergy index CI at ED90, 2591 [4]: 1.170 | IC50 ([5]; A2780 cells, 3 days incubation, read-out: IC50s (nM), ovarian cancer cells, A2780): 4590 nM | Synergy index CI at ED50, A2780 ([5]; cisplatin (CDDP) combined with DS + Cu, ED50, A2780): 0.567 | Synergy index CI at ED75, A2780 ([5]; cisplatin (CDDP) combined with DS + Cu, ED75, A2780): 0.320 | Synergy index CI at ED90, A2780 ([5]; cisplatin (CDDP) combined with DS + Cu, ED90, A2780): 0.209 | Synergy index CI at ED50, SKOV-3 ([6]; ED50): 0.389 | Synergy index CI at ED75, SKOV-3 ([6]; ED75): 0.346 | Synergy index CI at ED90, SKOV-3 ([6]; ED90): 0.319

Nc1nc2[nH]cc(CCc3ccc(C(=O)N[C@@H](CCC(=O)O)C(=O)O)cc3)c2c(=O)[nH]1 [PMTX, pemetrexed]
IC50 ([1]; Homo sapiens, 72 h): 920 nM | Synergy index CI at ED50, MSTO [1]: 0.399 | Synergy index CI at ED75, MSTO [1]: 0.196 | Synergy index CI at ED90, MSTO [1]: 0.102 | IC50 ([2]; Homo sapiens, 72 h): > 1000 nM | Synergy index CI at ED50, Ju77 [2]: 0.308 | Synergy index CI at ED75, Ju77 [2]: 0.431 | Synergy index CI at ED90, Ju77 [2]: 0.603 | IC50 ([3]; Homo sapiens, 72 h, E58 cells, 3 days incubation, MTT, read-out: IC50s (nM), inhibition of mesothelioma growth, E58): > 1000 nM | Synergy index CI at ED50, E58 [3]: 0.383 | Synergy index CI at ED75, E58 [3]: 0.384 | Synergy index CI at ED90, E58 [3]: 0.503 | IC50 ([4]; Homo sapiens, 72 h): > 1000 nM | Synergy index CI at ED50, 2591 [4]: 0.341 | Synergy index CI at ED75, 2591 [4]: 0.253 | Synergy index CI at ED90, 2591 [4]: 0.603

CCN(CC)C(=S)SSC(=S)N(CC)CC [disulfiram]
Survival rate, mesothelioma mice ([7]; disulfiram 40 μg/animal (2 mg/kg) i.p. + CuGlu 5 mg/kg oral, Day 90): 60% | Ascites, mesothelioma mice [7, 13]: did not reveal any ascites | Cancer nodules / masses, mesothelioma mice [7, 13]: only a small number of masses had formed | Survival rate, ovarian cancer mice ([8]; disulfiram 40 μg/animal (2 mg/kg) i.p. + CuGlu 5 mg/kg oral, Day 60): 90% | Cancer nodules / masses, ovarian cancer mice ([8]; disulfiram 40 μg/animal i.p. + CuGlu oral, Day 60): only a small number of masses had formed | Ascites, ovarian cancer mice ([8]; disulfiram 40 μg/animal i.p. + CuGlu oral, as of Day 60): did not reveal any ascites | Mean ascites volume per mouse [9, 14]: 0 ml per mouse | Number of cancer nodules per mouse [9, 14]: 0 nodules per mouse | Formation of ascites and masses at laparotomy ([9]; disulfiram 5 mg/kg i.p. + CuGlu 5 mg/kg oral): no formation of ascites or masses was observed | Formation of ascites and masses at laparotomy ([9]; disulfiram 5 mg/kg i.p. + CuGlu 5 mg/kg oral, listed as DS): no formation of ascites or tumor nodules | Effect on peritoneal metastasis ([9]; disulfiram 5 mg/kg i.p. with oral copper gluconate, S180 tumor-bearing mice): completely eliminate the animals' peritoneal metastasis | Body weight compared with control group ([9]; one week after injection of the cells): significantly lower than that of mice in the control group | Half-life of reduction by the glutathione reductase system in red blood cells [10]: 4 min | Blood concentration [11]: below the detection limit

CCN(CC)C(=S)SC1OC(C(=O)O)C(O)C(O)C1O (stereo not shown) [glucuronic acid DDC]
Anticancer activity [12]: completely lack any anticancer activity

CCN(CC)C(=S)SC [methyl DDC]
Anticancer activity [12]: completely lack any anticancer activity

methylated disulfiram
Anticancer activity [12]: completely loses its anticancer activity
